Data reported in PMC11306511, “Combining VPS34 inhibitors with STING agonists enhances type I interferon signaling and anti‐tumor efficacy” (Molecular Oncology, 2024).

Legend:
B16-F10 tumors = test: Tumor growth inhibition study, B16-F10 tumor-bearing mice; type: in vivo, mouse; conditions: B16-F10 in C57BL/6 mice; SB02024 20 mg·kg^−1 oral daily day 7-16; ADU-S100 10 μg intratumoral days 9, 11, 13, 15
Source text: Study protocols were approved by the Institutional Animal Care and Use Committee of CrownBio in China (AN‐1903‐05‐313) or the LIH's animal welfare committee in Luxembourg (agreement LECR‐2018‐12). Mice were handled according to European Union guidelines, adhering to the principles of replacement, reduction, and refinement (3Rs). Animals were housed in appropriate accommodations conducive to their well‐being, with provisions for housing, feeding, and environmental enrichment to meet their physical and behavioral needs. Highly skilled personnel were involved in carrying out procedures related to the animal experiments to ensure proper care and handling. Female 6 to 8‐week‐old BALB/c (supplied by Shanghai Lingchang Biotechnology Co., Shanghai, China; n = 14) or C57BL/6 mice (supplied by Janvier Labs, Le Genest‐Saint‐Isle, France; n = 40) were injected into the right flank with 1 × 10^6 Renca or 0.2 × 10^6 B16‐F10 cells, respectively, resuspended in 100 μL PBS (day 0). When tumors were palpable (day 9 for Renca, day 7 for B16‐F10 tumors), mice were randomly assigned into two groups for the Renca model with n = 6 (vehicle) and n = 8 (SB02024) or four groups for the B16‐F10 model with n = 10. […] Tumor growth was measured using a caliper every other day and estimated as follows: volume (cm^3) = (width)^2 × length × 0.5.

[1] = set-up: method as in PMID 34070756; conditions: cited from earlier work

Nc1ncnc2c1ncn2[C@@H]1O[C@@H]2COP(=O)([S-])O[C@@H]3[C@H](O)[C@@H](COP([O-])(=S)O[C@H]2[C@H]1O)O[C@H]3n1cnc2c(N)ncnc21.[Na+].[Na+] (some centres unmarked) [ADU-S100, reference compound]
% TGI (percent tumor growth inhibition compared to vehicle control) (B16-F10 tumors): 36%
anti-tumor efficacy in clinical trials [1]: only limited
